In ChEMBL document CHEMBL1201862, “PubChem BioAssay data set” (2004):
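48-hour exposure; five concentrations; linearly interpolated endpoints. Here, GI50 denotes the concentration required for 50% inhibition of growth.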 The source made the active and inactive calls. Cut-off read from the data, not from the text of the source: active = GI50 up to about 1.1 µM and inactive = higher.

Tests used:
Assay in all cases: NCI anticancer screen, dose series, 48 h
[1] = test system: OVCAR-8
[2] = test system: HCT-15
[3] = test system: M19-MEL
[4] = test system: OVCAR-3
[5] = test system: MOLT-4
[6] = test system: IGROV-1
[7] = test system: DMS-273
[8] = test system: HOP-18
[9] = test system: 786-0
[10] = test system: M14
[11] = test system: SK-MEL-5
[12] = test system: K562
[13] = test system: NCI-H226
[14] = test system: RXF 631
[15] = test system: CAKI-1
[16] = test system: SF-295
[17] = test system: SK-OV-3
[18] = test system: NCI-H23
[19] = test system: SN12C
[20] = test system: SW-620
[21] = test system: A549
[22] = test system: NCI-H522
[23] = test system: RXF 393
[24] = test system: U-251
[25] = test system: HT-29
[26] = test system: A498
[27] = test system: UACC-257
[28] = test system: Malme-3M
[29] = test system: KM12
[30] = test system: RPMI-8226
[31] = test system: SF-539
[32] = test system: NCI-H460
[33] = test system: HOP-92
[34] = test system: ACHN
[35] = test system: COLO 205
[36] = test system: LOX IMVI
[37] = test system: CCRF-CEM
[38] = test system: SK-MEL-28
[39] = test system: TK-10
[40] = test system: SNB-75
[41] = test system: UACC-62
[42] = test system: HL-60
[43] = test system: DLD-1
[44] = test system: UO-31
[45] = test system: HCT-116
[46] = test system: LXFL 529
[47] = test system: SNB-78
[48] = test system: DMS-114
[49] = test system: EKVX
[50] = test system: OVCAR-4
[51] = test system: KM-20L2
[52] = test system: SK-MEL-2
[53] = test system: SNB-19
[54] = test system: HOP-62
[55] = test system: SR
[56] = test system: HCC 2998
[57] = test system: OVCAR-5

Measured: GI50

COC(=O)Cc1c([C@@]2(C)CCCC(C)(C)C2)ccc2c1C(=O)OC2
6.44 µM: [2]
inactive: [1] 15.3 µM | [3] 15.1 µM | [4] 5.25 µM | [5] 3.92 µM | [6] 15 µM | [7] 5.43 µM | [8] 18.3 µM | [9] 15.7 µM | [10] 10.5 µM | [11] 7.36 µM | [12] 4.02 µM | [13] 11.2 µM | [14] 12.9 µM | [15] > 10 µM | [16] 10.3 µM | [17] 14 µM | [18] 9.35 µM | [19] 10.1 µM | [20] 18.9 µM | [21] 9.84 µM | [22] 5.04 µM | [23] 10.4 µM | [24] 13.3 µM | [25] 10.8 µM | [26] 25.5 µM | [27] 5.66 µM | [28] 17.9 µM | [29] 8.15 µM | [30] 2.7 µM | [31] 15.6 µM | [32] 8.83 µM | [33] 3.01 µM | [34] 11.7 µM | [35] 6.7 µM | [36] 11.2 µM | [37] 6.49 µM | [38] 13.1 µM | [39] 17.9 µM | [40] 14.3 µM | [41] 10.6 µM | [42] 3.42 µM | [43] 3.62 µM | [44] 3.58 µM | [45] 5.64 µM | [46] 7.29 µM | [47] 14.9 µM | [48] 3.96 µM | [49] 18.1 µM

Cc1ccc(S(=O)(=O)OC[C@@H]2CO2)cc1
> 100 µM: [2]
inactive: [1] > 100 µM | [3] > 100 µM | [4] > 100 µM | [5] > 100 µM | [50] > 100 µM | [6] > 100 µM | [7] > 100 µM | [8] > 100 µM | [9] > 100 µM | [10] > 100 µM | [51] > 100 µM | [11] > 100 µM | [12] > 100 µM | [13] > 100 µM | [14] 68.7 µM | [15] > 100 µM | [52] > 100 µM | [18] > 100 µM | [19] > 100 µM | [20] > 100 µM | [21] > 100 µM | [23] > 100 µM | [53] > 100 µM | [25] > 100 µM | [26] > 100 µM | [27] > 100 µM | [28] > 100 µM | [29] > 100 µM | [31] > 100 µM | [32] > 100 µM | [54] > 100 µM | [33] > 100 µM | [34] > 100 µM | [35] > 100 µM | [36] 99.3 µM | [37] > 100 µM | [38] > 100 µM | [39] 44.6 µM | [55] > 100 µM | [40] > 100 µM | [56] > 100 µM | [57] > 100 µM | [42] > 100 µM | [43] > 100 µM | [44] > 100 µM | [45] > 100 µM | [46] > 100 µM | [47] > 100 µM | [49] > 100 µM
